SMILES	melting point [°C]
CC(C)c1ccc(NC(=O)OC(C)(C)C)c(N)c1	100 to 101
CC(=O)Nc1ccc(/C=C/c2cc(/C=C/c3ccc4cc[nH]c4c3)[nH]n2)cc1	> 300
CN(C)c1ccc2cc(-c3ccnc(N)c3C#N)ccc2c1	256 to 257
Cc1nc(-c2ccc(OCC(C)(C)C)c(I)c2)sc1C(=O)O	194 to 195
CC(C)CCC(=O)NC[C@H](O)[C@H](O)[C@H](CC1CCCCC1)NC(=O)OC(C)(C)C	179 to 183
O=c1ccc2c(-c3ccncc3)nccc2[nH]1	> 300
CC(Sc1ccccc1)C1C=CCC1C(N)=O (stereo not given)	109
CN(C)c1ccc2[nH]c(=O)oc(=O)c2c1	258
CCCCOC(=O)N1CCSCC1	72.9 to 78.9
COc1ccccc1SCCCCCCCCCC(=O)O	65 to 66
c1ccc2c(c1)NCc1cccn1-2	108 to 110
C[C@@H]1COC(=O)N1c1nc(-c2ccc(Br)cc2)cs1	189 to 190
NCCc1ccc(C=Cc2ccccc2)cc1	141 to 156
CCCCCCCCCCCC(=O)Nc1ccc(O)c(C(=O)O)c1	201 to 205
CCOC(=O)c1ccc2cncc(I)c2n1	135 to 137
O=C(c1ccccc1)c1ccc(CCl)cc1	109 to 111
CC12CC(N3CCC4(CC3)OCCO4)C(O)CC1CCC1C2CCC2(C)C(O)C(N3CCC(O)CC3)CC12 (stereo not given)	253 to 255
CC(C)(C)Nc1cc(N2CCNCC2)nc(N2CCCC2)n1	140 to 145
O=C(Nc1ccc(/C=C/CO)c(F)c1)OCc1ccccc1	105 to 106
COc1cccc(CCNC(=O)N2CCC(Nc3ccc(CCNC[C@H](O)COc4ccc(O)cc4)cc3)CC2)c1	103 to 108
O=C(O)CCCCCCCCCCCCCCCBr	67 to 69
Cn1c2ccccc2c(=O)c2cscc21	188 to 190
CC(=O)c1ccc(NS(=O)(=O)c2ccc3c(c2)-c2c(nc(C)[nH]c2=O)CC3)cc1	> 240
CC(C)[C@@H](NC(=O)OC(C)(C)C)[C@H]1CCn2c(cc3ccccc32)C1	122 to 124
O=C(O)c1cc(F)c(F)c(Cl)c1F	109 to 111
O=C(Nc1cccc2[nH]ccc12)c1ccccc1OCCCCBr	135
CNC(=O)[C@@H](C[C@H](O)[C@H](CC1CCCCC1)NC(=O)[C@H](Cc1cscn1)NC(=O)OC(C)(C)C)C(C)(C)O	203 to 205
OCCCCOc1cnc(-c2ccccc2)c(-c2ccccc2)n1	93 to 95
CCN1C(=O)C(=CC=C2C=C(c3ccccc3)C=C3N2c2ccccc2C3(C)C)C(=O)N(CC)C1=S	> 310

The next lines start with the values.

melting point [°C]	SMILES
104 to 106	O=C(c1cc(C(F)(F)F)cc(C(F)(F)F)c1)N1CCN(C(=O)CN2CCC(O)(c3ccccc3)CC2)C(c2ccc(Cl)c(Cl)c2)C1 (racemic)
> 350	Oc1cccc(-c2nc(Nc3ccc(Cl)cc3)c3ccccc3n2)n1
120	CC#CCOc1ccc(S(=O)(=O)C(C(=O)OCC)C2CCN(C(=O)c3ccccc3)CC2)cc1 (stereo not given)
193 to 194	O=C(NC(=S)Nc1nc(-c2ccc3c(c2)CCCC3)cs1)c1ccc(Cl)cc1
224 to 225	CS(=O)(=O)CC(=O)c1[nH]c2cc(Br)c(Cl)cc2c1-c1ccccc1
241 to 242	O=C(O)c1[nH]c2cc(Br)c(Cl)cc2c1-c1ccccc1
152	NC1=NC(c2ccccc2)(c2cccc(Cc3ccc(F)cc3)c2)C2=NCCCN12 (stereo not given)
98 to 100	CCCC1(CC(=O)O)OCCc2c1[nH]c1c(F)ccc(C(=O)N3CCOCC3)c21 (stereo not given)
160	O=C(NCC(=O)N1[C@@H](c2ccccc2O)CC[C@H]1c1ccccc1)Nc1cccc(C(=O)O)c1 (racemic)
155 to 156	O=C(O)C1=C(c2ccccc2)c2ccccc2CS1
144 to 146	CC1(CCOc2ccc(/C=C/C(=O)O)c(Oc3ncc(C(F)(F)F)cc3Cl)c2)OCCO1
196 to 198	O=C1Cc2cc(Cl)cc(Oc3ccccc3Cl)c2N1
57 to 60	Cc1cccc(COc2cccc(OCc3cnc4ccccc4n3)c2)c1C(=O)O
100 to 102	CCc1noc(-c2cn(-c3cc(Cl)ccc3OCc3ccccc3)cn2)n1
178 to 179	Cc1ccccc1C(CCC(=O)O)Oc1cc(OCc2ccsc2)ccc1-c1nc(C(=O)O)co1 (racemic)
146 to 147	COc1cc2nc(C)nc(N3CCN(C(=O)Nc4ccc(Oc5ccccc5)cc4)CC3)c2cc1OC
166 to 168	Cc1ccccc1C(=O)N1CCC(=NO)c2ccc(Cl)cc21
113 to 115	Cc1cc(-c2cc(C(F)(F)F)nn2-c2ccc(S(N)(=O)=O)c(Cl)c2)ccc1-c1cscn1
128 to 130	CCCCc1cc2cc(O)ccc2c(Oc2ccc(/C=C/C(=O)O)cc2)c1-c1ccccc1
138 to 140	O=C1CN(Cc2n[nH]c(=O)[nH]2)[C@@H](c2ccccc2)[C@@H](COCc2cc(C(F)(F)F)cc(C(F)(F)F)c2)N1
217 to 218	COc1ccccc1N1CCN(CCCn2c(=O)[nH]c3sccc3c2=O)CC1
